Assay results as given in US4537924A, “Quadratic acid amide derivatives, their use as stabilizers, and synthetic resins treated therewith” (Chemische Werke Huels, AG, priority 1982, dated 1985).
Converted amounts (≈) assume the structure as drawn. Read-outs that look alike come from different tables or passages of the source.

Key:
[1] = Extraction of stabilizers from polyamide 12 with boiling organic solvents; assay type: physicochemical; settings: 0.25% by weight stabilizer
Description: (a) Polyamide 12 (Number Average Mol. Wt. 30,000: Producer: Chemische Werke Hus AG, D-4370 Marl)
In a pug mill, polyamide 12 granules were combined with quadratic acid bisamides, and the resultant mixture was homogenized in a twin screw extruder. The granulated material obtained in this way was then molded into panels having a thickness of 1 mm, and chips of 30×10 mm were then cut therefrom.
(§1) The solubility values in water and dilute acetic acid (Tables 2 and 3), as well as the extraction values (Tables 4 and 7) confirm the low migrating tendency of the compounds according to the present invention.

[2] = Volatility of pure compound by thermogravimetric determination; assay type: physicochemical; settings: heating-up rate 10° C./min; for Volatility: temperature at weight drop of 2%: weight drop 2%; for Volatility: temperature at weight drop of 50%: weight drop 50%; for Volatility: temperature at weight drop of 80%: weight drop 80%
Method: To test volatility, the quadratic acid bisamides or the synthetic resins treated therewith were subjected to thermogravimetric determination (cf. Tables 1 and 6). The heating-up rate was 10° C./min. A DuPont 950 Thermogravimetric Analyzer was applied.

[3] = Light exposure test (buckling test) with stabilizers in polyamide 12
[4] = Volatility (sublimation) of stabilizers from polyether esters; assay type: physicochemical; settings: from polyether ester; 195° C. and 0.1 mbar; 0.5% by weight
[5] = Extraction of stabilizers from polyether esters with boiling organic solvents; assay type: physicochemical; settings: from polyether ester
Description: (b) Polyether Esters (Number Average Mol. Wt. 25,000)
Into a polyether ester melt based on terephthalic acid, 1,4-butanediol, and polytetrahydrofuran, 0.5% by weight of the respective quadratic acid amide was introduced. After processing into granules, the latter were used to make press-molded panels of a thickness of 1 mm, from which chips were cut of 30×10 mm.
as §1

[6] = Solubility of pure compound in 10% acetic acid; assay type: physicochemical; settings: 22° C.; for solubility: 10% acetic acid
Description: as §1

[7] = Light exposure test (buckling test) with stabilizers in polypropylene
[8] = Solubility of pure compound in water; assay type: physicochemical
Description: as §1

[9] = with costabilizer mixture (benzotriazole, hexamethylenediamine phenol, phosphite; 0.25% each), 0.25% by wt. stabilizer (for salts: refers to the bisamide)
[10] = without costabilizer, 0.25% by wt. stabilizer (for salts: refers to the bisamide on which the salt is based)

CC1(C)CC2(CC(C)(C)N1)OC1(CCCCCCCCCCC1)NC2=O [B, 2,2,4,4-tetramethyl-3,20-diaza-7-oxa-21-oxodispiro[5,1,11,2]heneicosane]
Degree of extraction after 8 hour treatment ([1]; boiling chloroform): 97.2 % of Maximally Extractable Amo | Degree of extraction after 8 hour treatment ([1]; boiling methanol): 83.1 % of Maximally Extractable Amo | Volatility: temperature at weight drop of 2% [2]: 200 °C | Volatility: temperature at weight drop of 50% [2]: 280 °C | Volatility: temperature at weight drop of 80% [2]: 300 °C

CCN(CC)c1c([O-])c(=[N+](CC)CC)c1=O [C, 1,3-Bis(diethylamino)cyclobutenediylium-2,4-diolate, reference compound]
Stabilizing effect in polyamide 12, light exposure to break [3, 9]: 511 h | Stabilizing effect in polyamide 12, light exposure to break [3, 10]: 460 h

CC1(C)CC(OC(=O)CCCCCCCCC(=O)OC2CC(C)(C)NC(C)(C)C2)CC(C)(C)N1 [Comparative Example A, sebacic acid di-4-hydroxy-2,2,6,6-tetramethylpiperidine ester]
Degree of sublimation after 24-hour treatment [4]: 88 % of Maximally Sublimable Quan | Degree of extraction after 8 hour treatment ([1]; boiling chloroform): 69.9 % of Maximally Extractable Amo | Degree of extraction after 8 hour treatment ([1]; boiling methanol): 68.7 % of Maximally Extractable Amo | Degree of extraction after 8-hour treatment ([5]; methanol (65° C.)): 60 % of Maximally Extractable Qua | Degree of extraction after 8-hour treatment ([5]; toluene (110° C.)): 53 % of Maximally Extractable Qua | Volatility: temperature at weight drop of 2% [2]: 220 °C | Volatility: temperature at weight drop of 50% [2]: 285 °C | Volatility: temperature at weight drop of 80% [2]: 300 °C | solubility [6]: 402000 µg/mL (≈ 836000 µM) | Stabilizing effect in polypropylene, light exposure to break ([7]; 0.2% by wt. stabilizer): 277 h

C[C@@H]1CN(c2c([O-])c(=[N+]3C[C@@H](C)O[C@@H](C)C3)c2=O)C[C@H](C)O1 [E, 1,3-Bis(cis-2,6-dimethylmorpholino)cyclobutenediylium-2,4-diolate, reference compound]
Stabilizing effect in polyamide 12, light exposure to break [3, 9]: 473 h | Stabilizing effect in polyamide 12, light exposure to break [3, 10]: 432 h

CC1(C)CC(N=c2c(O)c(NC3CC(C)(C)NC(C)(C)C3)c2=O)CC(C)(C)N1 [Example 1, 1,3-Bis[2,2,6,6-tetramethyl-4-piperidylamino]cyclobutenediylium-2,4-diolate]
solubility ([8]; 22° C.): < 20 µg/mL | solubility ([8]; 100° C.): 150 µg/mL (≈ 384 µM) | Stabilizing effect in polyamide 12, light exposure to break [3, 9]: 1,076 h | Stabilizing effect in polyamide 12, light exposure to break [3, 10]: 790 h

CC1(C)CC(N=c2c(O)c(NC3CC(C)(C)NC(C)(C)C3)c2=O)CC(C)(C)N1 [Example 1.1, 1,3-bis[2,2,6,6-tetramethyl-4-piperidylamino]cyclobutenediylium-2,4-diolate]
Solubility of pure compound in 10% acetic acid [6]: 4.6 g/100 g 10% HAc

CC1(C)CC(N=c2c(O)c(NC3CC(C)(C)NC(C)(C)C3)c2=O)CC(C)(C)N1 [Example 1.2, 1,3-bis[2,2,6,6-tetramethyl-4-piperidylamino]cyclobutenediylium-2,4-diolate]
Stabilizing effect in polyamide 12, light exposure to break [3, 9]: 1,120 h | Stabilizing effect in polyamide 12, light exposure to break [3, 10]: 780 h | Solubility of pure compound in 10% acetic acid [6]: 2.4 g/100 g 10% HAc

CC1(C)CC(N=c2c(O)c(NC3CC(C)(C)NC(C)(C)C3)c2=O)CC(C)(C)N1 [Example 1.3, 1,3-bis[2,2,6,6-tetramethyl-4-piperidylamino]cyclobutenediylium-2,4-diolate]
Stabilizing effect in polyamide 12, light exposure to break [3, 9]: 976 h | Stabilizing effect in polyamide 12, light exposure to break [3, 10]: 683 h | Solubility of pure compound in 10% acetic acid [6]: 5.0 g/100 g 10% HAc

CC1(C)CC(N=c2c(O)c(NC3CC(C)(C)NC(C)(C)C3)c2=O)CC(C)(C)N1 [Example 1.4, 1,3-bis[2,2,6,6-tetramethyl-4-piperidylamino]cyclobutenediylium-2,4-diolate]
Solubility of pure compound in 10% acetic acid [6]: < 0.1 g/100 g 10% HAc

CC1(C)CC(N=c2c(O)c(NC3CC(C)(C)NC(C)(C)C3)c2=O)CC(C)(C)N1 [Example 1.5, 1,3-bis[2,2,6,6-tetramethyl-4-piperidylamino]cyclobutenediylium-2,4-diolate]
Stabilizing effect in polyamide 12, light exposure to break [3, 9]: 1,121 h | Stabilizing effect in polyamide 12, light exposure to break [3, 10]: 720 h | Solubility of pure compound in 10% acetic acid [6]: 0.9 g/100 g 10% HAc

CCCCN(c1c([O-])c(=[N+](CCCC)C2CC(C)(C)NC(C)(C)C2)c1=O)C1CC(C)(C)NC(C)(C)C1 [Example 3, 1,3-Bis[N-n-butyl-N-(2,2,6,6-tetramethyl-4-piperidyl)amino]cyclobutenediylium-2,4-diolate]
solubility ([8]; 22° C.): < 100 µg/mL | solubility ([8]; 100° C.): 800 µg/mL (≈ 1590 µM)

CC(C)CN(c1c([O-])c(=[N+](CC(C)C)C2CC(C)(C)NC(C)(C)C2)c1=O)C1CC(C)(C)NC(C)(C)C1 [Example 4, 1,3-Bis[N-isobutyl-N-(2,2,6,6-tetramethyl-4-piperidyl)amino]cyclobutenediylium-2,4-diolate]
solubility ([8]; 22° C.): < 100 µg/mL | solubility ([8]; 100° C.): 700 µg/mL (≈ 1390 µM)

CCCCCCN(c1c([O-])c(=[N+](CCCCCC)C2CC(C)(C)NC(C)(C)C2)c1=O)C1CC(C)(C)NC(C)(C)C1 [Example 5, 1,3-Bis[N-n-hexyl-(2,2,6,6-tetramethyl-4-piperidyl)amino]cyclobutenediylium-2,4-diolate]
solubility ([8]; 22° C.): < 100 µg/mL | solubility ([8]; 100° C.): 300 µg/mL (≈ 537 µM)

CCCCCCCCN(c1c([O-])c(=[N+](CCCCCCCC)C2CC(C)(C)NC(C)(C)C2)c1=O)C1CC(C)(C)NC(C)(C)C1 [Example 6, 1,3-Bis[N-n-octyl-N-(2,2,6,6-tetramethyl-4-piperidyl)amino]cyclobutenediylium-2,4-diolate]
solubility ([8]; 22° C.): < 100 µg/mL | solubility ([8]; 100° C.): 200 µg/mL (≈ 325 µM)

CC1(C)CC(N(CCO)c2c([O-])c(=[N+](CCO)C3CC(C)(C)NC(C)(C)C3)c2=O)CC(C)(C)N1 [Example 7, 1,3-Bis[N-2-hydroxyethyl-N-(2,2,6,6-tetramethyl-4-piperidyl)amino]cyclobutenediylium-2,4-diolate]
Stabilizing effect in polypropylene, light exposure to break [7]: 375 h

CC1(C)CC(OCCCN=c2c(O)c(NCCCOC3CC(C)(C)NC(C)(C)C3)c2=O)CC(C)(C)N1 [Example 9, 1,3-Bis[2,2,6,6-tetramethyl-4-piperidyloxypropylamino]cyclobutenediylium-2,4-diolate]
solubility ([8]; 22° C.): 2400 µg/mL (≈ 4740 µM) | solubility ([8]; 100° C.): 9500 µg/mL (≈ 18700 µM) | Stabilizing effect in polyamide 12, light exposure to break [3, 9]: 1,135 h | Stabilizing effect in polyamide 12, light exposure to break [3, 10]: 820 h

CC(CO)N=c1c(O)c(NC(C)CO)c1=O (stereo not drawn) [F, 1,3-Bis[(2-hydroxy-1-methylethyl)amino]cyclobutenediylium-2,4-diolate, reference compound]
solubility [6]: 222000 µg/mL (≈ 973000 µM)

O=c1c(N2CCCCC2)c([O-])c1=[N+]1CCCCC1 [G, 1,3-Bispiperidinocyclobutenediylium-2,4-diolate, reference compound]
Stabilizing effect in polyamide 12, light exposure to break [3, 9]: 619 h | Stabilizing effect in polyamide 12, light exposure to break [3, 10]: 530 h | Stabilizing effect in polypropylene, light exposure to break ([7]; 0.2% by wt. stabilizer): 212 h
